What was measured:
Experiment in all cases: relative viability (nuclei count vs DMSO), 5 days (fraction); higher = more cells survive
Pazopanib + Alpelisib = compound: Cc1ccc(Nc2nccc(N(C)c3ccc4c(C)n(C)nc4c3)n2)cc1S(N)(=O)=O [Pazopanib] + Cc1nc(NC(=O)N2CCC[C@H]2C(N)=O)sc1-c1ccnc(C(C)(C)C(F)(F)F)c1 [Alpelisib] (partner 2 µM)
In short: (§1)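 Relative viability is defined as nuclei in treated wells over nuclei in vehicle wells. Duplicate plates were run and medians reported. Lung cancer cell lines in 1536-well plates were dosed by pin tool one day after seeding, with one drug or with a fixed anchor-drug dose plus five library-drug doses (not always all listed) in √10 steps, and nuclei were counted after 5 days.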

Ponatinib + Foretinib = compound: Cc1ccc(C(=O)Nc2ccc(CN3CCN(C)CC3)c(C(F)(F)F)c2)cc1C#Cc1cnc2cccnn12 [Ponatinib] + COc1cc2c(Oc3ccc(NC(=O)C4(C(=O)Nc5ccc(F)cc5)CC4)cc3F)ccnc2cc1OCCCN1CCOCC1 [Foretinib] (partner 0.25 µM)
In short: as §1

Ponatinib + Linsitinib = compound: Cc1ccc(C(=O)Nc2ccc(CN3CCN(C)CC3)c(C(F)(F)F)c2)cc1C#Cc1cnc2cccnn12 [Ponatinib] + C[C@]1(O)C[C@@H](c2nc(-c3ccc4ccc(-c5ccccc5)nc4c3)c3c(N)nccn32)C1 [Linsitinib] (partner 1 µM)
In short: as §1

Ponatinib + Tozasertib = compound: Cc1ccc(C(=O)Nc2ccc(CN3CCN(C)CC3)c(C(F)(F)F)c2)cc1C#Cc1cnc2cccnn12 [Ponatinib] + Cc1cc(Nc2cc(N3CCN(C)CC3)nc(Sc3ccc(NC(=O)C4CC4)cc3)n2)n[nH]1 [Tozasertib] (partner 0.1 µM)
In short: as §1

Cell Line: UMC-11
- relative viability (Pazopanib + Alpelisib; first compound 0.01 µM): 1.02
- relative viability (Pazopanib + Alpelisib; first compound 0.03162 µM): 1.05
- relative viability (Pazopanib + Alpelisib; first compound 0.1 µM): 0.804
- relative viability (Pazopanib + Alpelisib; first compound 0.3162 µM): 0.948
- relative viability (Pazopanib + Alpelisib; first compound 1 µM): 1.12
- relative viability (Ponatinib + Foretinib; first compound 0.002 µM): 1.06
- relative viability (Ponatinib + Foretinib; first compound 0.006325 µM): 1.04
- relative viability (Ponatinib + Foretinib; first compound 0.06325 µM): 1.25
- relative viability (Ponatinib + Foretinib; first compound 0.2 µM): 1.03
- relative viability (Ponatinib + Linsitinib; first compound 0.002 µM): 1.02
- relative viability (Ponatinib + Linsitinib; first compound 0.006325 µM): 1.03
- relative viability (Ponatinib + Linsitinib; first compound 0.06325 µM): 1.16
- relative viability (Ponatinib + Linsitinib; first compound 0.2 µM): 1.03
- relative viability (Ponatinib + Tozasertib; first compound 0.002 µM): 0.193
- relative viability (Ponatinib + Tozasertib; first compound 0.006325 µM): 0.223
- relative viability (Ponatinib + Tozasertib; first compound 0.06325 µM): 0.209
- relative viability (Ponatinib + Tozasertib; first compound 0.2 µM): 0.217

— the supplement of paper PMC10307832
